# System: neonatal rat ventricular myocytes (NRVM)
# Assay: spontaneous beating of NRVM muscle tissue layer on cantilever device, resistance readout
# Format: cell-based
# Details: after addition of 10 μM isoproterenol; NRVM muscle tissue layer in incubator, resistance versus time (FIG. 12B)
# Procedure: After placement of the wells, neonatal rat ventricular myocytes (NRVM) were seeded at a concentration of 0.3 Mio cells per ml medium, and the contraction of the resulting muscle tissue layers was tested on day 4-5 after seeding. Prior to testing, the cantilevers were released by lowering the sample temperature to room temperature to dissolve the […] sacrificial layer, meaning that the flexible substrate cantilevers were released from the underlying rigid glass substrate after development and growth of the tissue.
smiles,measurement,value
CC(C)NCC(O)c1ccc(O)c(O)c1 (stereo not shown) [isoproterenol],spontaneous beating frequency of the cells,significantly increased

# From patent publication US20170016875A1, “ANISOTROPIC MUSCULAR TISSUE DEVICES WITH INTEGRATED ELECTRICAL FORCE READOUTS” (President and Fellows of Harvard College, priority 2014, published 2017)
